# Earlier results in article PMC12375981 (Protein Science : A Publication of the Protein Society, 2025).
# Marks after values point to notes of the source that are not given here.
# How the values were obtained:
# [1] = target: WT 3CL^pro (Severe acute respiratory syndrome coronavirus 2, UniProt P0DTD1); settings: cited from earlier work
# [2] = test system: SARS‐CoV‐2 3CL^pro; settings: cited from earlier work
SMILES,K D ^app [1],increase of the strength of dimerization [2]
COc1cccc2[nH]c(C(=O)N[C@@H](CC(C)C)C(=O)N[C@@H](C[C@@H]3CCNC3=O)C(=O)COP(=O)(O)O)cc12 [lufotrelvir],17 ± 2 ^b nM,–
CC(C)(C)[C@H](NC(=O)C(F)(F)F)C(=O)N1C[C@H]2[C@@H]([C@H]1C(=O)N[C@H](C#N)C[C@@H]1CCNC1=O)C2(C)C [nirmatrelvir],–,about seven
